Experimental data published in publication PMC3258498 (Journal of Medicinal Chemistry, 2011).
Values joined by “and” are separate entries in the source; they are usually repeats but may differ in a detail not shown here. Identical values can stand only once. Like-named read-outs stand apart in the source and are kept apart here.

Tests used:
WT HIV-1 = settings: cited from earlier work
[1] = system: IIIB strain of HIV-1 (WT); test: Anti-HIV-1 activity in infected MT-2 human T-cells, MTT colorimetric method; type: cell-based; settings: for gain in potency: in going from 1
HIV-1 Y181C variant [2] = settings: read-out: activity for the Y181C-containing variant; cited from earlier work
[3] = system: HIV-1 K103N/Y181C variant; settings: read-out: EC50 K103N/Y181C; Literature data, MT4 cells; cited from earlier work
HIV-1 Y181C variant [4] = settings: read-out: EC50 Y181C; Literature data, MT4 cells; cited from earlier work
[5] = read-out: activity for WT HIV-1

## Cc1cc(C)cc(Oc2c(CSCc3ccco3)c(C)[nH]c(=O)c2I)c1 [compound 3]
WT HIV-1; read-out: activity towards WT HIV-1
  EC50: 1 to 10 nM and 2 nM

## O=c1ccn(CCOc2ccc(Cl)cc2Cc2cc(Cl)ccc2Cl)c(=O)[nH]1 [compound 10]
[1]
  gain in potency: ca. 15 fold

## O=c1ccn(CCOc2ccc(Cl)cc2Cc2c(Cl)cccc2Cl)c(=O)[nH]1 [compound 11]
[1]
  gain in potency: ca. 15 fold

## N#Cc1ccc(Oc2cc(Cl)ccc2Cl)c(OCCc2ccncc2)c1 [compound 33]
[1]; relative to 31
  worsening of the EC50 value: 18 fold

## CCc1c(C)[nH]c(=O)c(I)c1Oc1cccc(/C=C/C#N)c1 [compound 38]
WT HIV-1; [5]
  EC50: < 5 nM
HIV-1 Y181C variant [2]
  EC50: < 5 nM

## Cc1cc(/C=C/C#N)cc(C)c1Nc1ccnc(Nc2ccc(C#N)cc2)n1 [compound 39, 4-[[4-[[4-[(1E)-2-cyanoethenyl]-2,6-dimethylphenyl]amino]-2-pyrimidinyl]amino]benzonitrile]
WT HIV-1; [5]
  EC50: < 5 nM
HIV-1 Y181C variant [2]
  EC50: < 5 nM

## Cc1ccnc2c1NC(=O)c1cccnc1N2C1CC1 [nevirapine]
[3]
  EC50: > 10000 nM
HIV-1 Y181C variant [4]
  EC50: > 10000 nM
